Test results from ChEMBL document CHEMBL4715829, “Heterodimeric Rifampicin-Tobramycin conjugates break intrinsic resistance of Pseudomonas aeruginosa to doxycycline and chloramphenicol in vitro and in a Galleria mellonella in vivo model” (Eur J Med Chem, 2019).
In brackets after ≈: the same amount, converted by molar mass.

Legend:
Pseudomonas aeruginosa [1] = assay: Antibacterial activity against Pseudomonas aeruginosa ATCC 27853 assessed as reduction in bacterial growth incubated for 18 hrs by broth microdilution assay; type: functional
Staphylococcus aureus = assay: Antibacterial activity against methicillin-resistance Staphylococcus aureus ATCC 33592 assessed as reduction in bacterial growth incubated for 18 hrs by broth microdilution assay; type: functional
Escherichia coli [2] = assay: Antibacterial activity against gentamicin-resistant Escherichia coli CAN-ICU 61714 assessed as reduction in bacterial growth incubated for 18 hrs by broth microdilution assay; type: functional
Escherichia coli [3] = assay: Antibacterial activity against Escherichia coli CAN-ICU 63074 (AMK 32) assessed as reduction in bacterial growth incubated for 18 hrs by broth microdilution assay; type: functional
Escherichia coli [4] = assay: Antibacterial activity against gentamicin, tobramycin, ciprofloxacin-resistant Escherichia coli ATCC 97615 harboring aac(3')IIa gene assessed as reduction in bacterial growth incubated for 18 hrs by broth microdilution assay; type: functional
[5] = test system: Stenotrophomonas maltophilia; assay: Antibacterial activity against Stenotrophomonas maltophilia CAN-ICU 62584 assessed as reduction in bacterial growth incubated for 18 hrs by broth microdilution assay; type: functional
Acinetobacter baumannii = assay: Antibacterial activity against Acinetobacter baumannii CAN-ICU 63169 assessed as reduction in bacterial growth incubated for 18 hrs by broth microdilution assay; type: functional
Klebsiella pneumoniae = assay: Antibacterial activity against Klebsiella pneumoniae ATCC 13883 assessed as reduction in bacterial growth incubated for 18 hrs by broth microdilution assay; type: functional
Pseudomonas aeruginosa [6] = assay: Antibacterial activity against Pseudomonas aeruginosa 750 harboring efflux mutant assessed as reduction in bacterial growth incubated for 18 hrs by broth microdilution assay; type: functional
Pseudomonas aeruginosa [7] = assay: Antibacterial activity against Pseudomonas aeruginosa PAO1 assessed as reduction in bacterial growth by measuring rifampicin MIC at <=[…] uM in presence of rifampicin incubated for 18 hrs by broth microdilution assay based checkerboard assay (reference value: […] microg/ml); type: functional; conditions: dose microM <=10
Pseudomonas aeruginosa [8] = assay: Antibacterial activity against Pseudomonas aeruginosa PAO1 assessed as reduction in bacterial growth by measuring minocycline MIC at <=10 uM in presence of minocycline incubated for 18 hrs by broth microdilution assay based checkerboard assay (reference value: 8 microg/ml); type: functional; conditions: dose microM <=10
Pseudomonas aeruginosa [9] = assay: Antibacterial activity against Pseudomonas aeruginosa PAO1 assessed as reduction in bacterial growth by measuring aztreonam MIC at <=10 uM in presence of aztreonam incubated for 18 hrs by broth microdilution assay based checkerboard assay (reference value: 4 microg/ml); type: functional; conditions: dose microM <=10
Pseudomonas aeruginosa [10] = assay: Antibacterial activity against Pseudomonas aeruginosa PAO1 assessed as reduction in bacterial growth by measuring ceftazidime MIC at <=10 uM in presence of ceftazidime incubated for 18 hrs by broth microdilution assay based checkerboard assay (reference value: 2 microg/ml); type: functional; conditions: dose microM <=10
Pseudomonas aeruginosa [11] = assay: Antibacterial activity against Pseudomonas aeruginosa PAO1 assessed as reduction in bacterial growth by measuring pleuromutilin MIC at <=10 uM in presence of pleuromutilin incubated for 18 hrs by broth microdilution assay based checkerboard assay (reference value: 512 microg/ml); type: functional; conditions: dose microM <=10
Pseudomonas aeruginosa [12] = assay: Antibacterial activity against Pseudomonas aeruginosa PAO1 assessed as reduction in bacterial growth by measuring novobiocin MIC at <=10 uM in presence of novobiocin incubated for 18 hrs by broth microdilution assay based checkerboard assay (reference value: 512 microg/ml); type: functional; conditions: dose microM <=10
Pseudomonas aeruginosa [13] = assay: Antibacterial activity against Pseudomonas aeruginosa PAO1 assessed as reduction in bacterial growth by measuring colistin MIC at <=10 uM in presence of colistin incubated for 18 hrs by broth microdilution assay based checkerboard assay (reference value: 1 microg/ml); type: functional; conditions: dose microM <=10
Pseudomonas aeruginosa [14] = assay: Antibacterial activity against Pseudomonas aeruginosa PAO1 assessed as fractional inhibitory concentration index in presence of Tobramycin incubated for 18 hrs by broth microdilution assay based checkerboard assay; type: functional
Pseudomonas aeruginosa [15] = assay: Antibacterial activity against Pseudomonas aeruginosa PAO1 assessed as fractional inhibitory concentration index in presence of Doxycycline incubated for 18 hrs by broth microdilution assay based checkerboard assay; type: functional
Pseudomonas aeruginosa [16] = assay: Antibacterial activity against Pseudomonas aeruginosa PAO1 assessed as fractional inhibitory concentration index in presence of Tigecycline incubated for 18 hrs by broth microdilution assay based checkerboard assay; type: functional
Pseudomonas aeruginosa [17] = assay: Antibacterial activity against Pseudomonas aeruginosa PAO1 assessed as fractional inhibitory concentration index in presence of Linezolid incubated for 18 hrs by broth microdilution assay based checkerboard assay; type: functional
Pseudomonas aeruginosa [18] = assay: Antibacterial activity against Pseudomonas aeruginosa PAO1 assessed as fractional inhibitory concentration index in presence of Moxifloxacin incubated for 18 hrs by broth microdilution assay based checkerboard assay; type: functional
Pseudomonas aeruginosa [19] = assay: Antibacterial activity against Pseudomonas aeruginosa PAO1 assessed as fractional inhibitory concentration index in presence of Vancomycin incubated for 18 hrs by broth microdilution assay based checkerboard assay; type: functional
Pseudomonas aeruginosa [20] = assay: Antibacterial activity against Pseudomonas aeruginosa PAO1 assessed as fractional inhibitory concentration index in presence of Ceftazidime incubated for 18 hrs by broth microdilution assay based checkerboard assay; type: functional
Pseudomonas aeruginosa [21] = assay: Antibacterial activity against Pseudomonas aeruginosa PAO1 assessed as fractional inhibitory concentration index in presence of Chloramphenicol incubated for 18 hrs by broth microdilution assay based checkerboard assay; type: functional
Pseudomonas aeruginosa [22] = assay: Antibacterial activity against Pseudomonas aeruginosa PAO1 assessed as fractional inhibitory concentration index in presence of Clindamycin incubated for 18 hrs by broth microdilution assay based checkerboard assay; type: functional
Pseudomonas aeruginosa [23] = assay: Antibacterial activity against Pseudomonas aeruginosa PAO1 assessed as fractional inhibitory concentration index in presence of Erythromycin incubated for 18 hrs by broth microdilution assay based checkerboard assay; type: functional
Pseudomonas aeruginosa [24] = assay: Antibacterial activity against Pseudomonas aeruginosa PAO1 assessed as fractional inhibitory concentration index in presence of Colistin incubated for 18 hrs by broth microdilution assay based checkerboard assay; type: functional
[25] = Hemolytic activity in porcine erythrocyte at 1024 ug/ml incubated for 1 hr; type: ADME, cell-based, Sus scrofa; conditions: pig, porcine erythrocytes, at 1024 µg/mL, read-out: Activity
[26] = Cytotoxicity against human HEK293 cells assessed as cell viability at 50 uM incubated for 48 hrs by prestoblue assay; type: cell-based; conditions: read-out: Activity
Pseudomonas aeruginosa [27] = assay: Antibacterial activity against Pseudomonas aeruginosa 100036 assessed as reduction in bacterial growth incubated for 18 hrs by broth microdilution assay; type: functional
Pseudomonas aeruginosa [28] = assay: Antibacterial activity against Pseudomonas aeruginosa 260-97103 assessed as reduction in bacterial growth incubated for 18 hrs by broth microdilution assay; type: functional
Pseudomonas aeruginosa [29] = assay: Antibacterial activity against Pseudomonas aeruginosa 262-101856 assessed as reduction in bacterial growth incubated for 18 hrs by broth microdilution assay; type: functional
Pseudomonas aeruginosa [30] = assay: Antibacterial activity against Pseudomonas aeruginosa 114228 assessed as reduction in bacterial growth incubated for 18 hrs by broth microdilution assay; type: functional
Pseudomonas aeruginosa [31] = assay: Antibacterial activity against Pseudomonas aeruginosa 101243 assessed as fractional inhibitory concentration index in presence of chloramphenicol incubated for 18 hrs by broth microdilution assay; type: functional

## CO[C@H]1/C=C/O[C@@]2(C)Oc3c(C)c(O)c4c(O)c(c(/C=N/N5CCN(Cc6cn(CCCCO[C@@H]7[C@@H](O[C@H]8O[C@H](CO)[C@@H](O)[C@H](N)[C@H]8O)[C@H](N)C[C@H](N)[C@H]7O[C@H]7O[C@H](CN)[C@@H](O)C[C@H]7N)nn6)CC5)c(O)c4c3C2=O)NC(=O)/C(C)=C\C=C\[C@H](C)[C@H](O)[C@@H](C)[C@@H](O)[C@@H](C)[C@H](OC(C)=O)[C@@H]1C.O=C(O)C(F)(F)F.O=C(O)C(F)(F)F.O=C(O)C(F)(F)F.O=C(O)C(F)(F)F.O=C(O)C(F)(F)F
Pseudomonas aeruginosa [1]
  MIC: > 32 µg/mL
Staphylococcus aureus
  MIC: > 32 µg/mL
Escherichia coli [2]
  MIC: > 32 µg/mL
Escherichia coli [3]
  MIC: > 32 µg/mL
Escherichia coli [4]
  MIC: > 32 µg/mL
[5]
  MIC: > 32 µg/mL
Acinetobacter baumannii
  MIC: > 32 µg/mL
Klebsiella pneumoniae
  MIC: > 32 µg/mL
Pseudomonas aeruginosa [6]
  MIC: > 256 µg/mL
Pseudomonas aeruginosa [7]
  MIC: 4 µg/mL
Pseudomonas aeruginosa [8]
  MIC: 2 µg/mL
Pseudomonas aeruginosa [9]
  MIC: 4 µg/mL
Pseudomonas aeruginosa [10]
  MIC: 2 µg/mL
Pseudomonas aeruginosa [11]
  MIC: 512 µg/mL
Pseudomonas aeruginosa [12]
  MIC: 256 µg/mL
Pseudomonas aeruginosa [13]
  MIC: 0.5 µg/mL
Pseudomonas aeruginosa [14]
  fractional inhibitory concentration index (FICI): 1.03
Pseudomonas aeruginosa [15]
  fractional inhibitory concentration index (FICI): 0.09
Pseudomonas aeruginosa [16]
  fractional inhibitory concentration index (FICI): 0.51
Pseudomonas aeruginosa [17]
  fractional inhibitory concentration index (FICI): 1.03
Pseudomonas aeruginosa [18]
  fractional inhibitory concentration index (FICI): 1.03
Pseudomonas aeruginosa [19]
  fractional inhibitory concentration index (FICI): 1.03
Pseudomonas aeruginosa [20]
  fractional inhibitory concentration index (FICI): 1.03
Pseudomonas aeruginosa [21]
  fractional inhibitory concentration index (FICI): 0.28
Pseudomonas aeruginosa [22]
  fractional inhibitory concentration index (FICI): 0.53
Pseudomonas aeruginosa [23]
  fractional inhibitory concentration index (FICI): 0.53
Pseudomonas aeruginosa [24]
  fractional inhibitory concentration index (FICI): 0.53
[25]
  hemolysis at 1 h, 1024 ug/ml: < 2%
[26]
  viability at 48 h, 50 µM: > 70%
Pseudomonas aeruginosa [27]
  MIC: > 256 µg/mL
Pseudomonas aeruginosa [28]
  MIC: > 128 µg/mL
Pseudomonas aeruginosa [29]
  MIC: > 256 µg/mL
Pseudomonas aeruginosa [30]
  MIC: > 128 µg/mL

## CO[C@H]1/C=C/O[C@@]2(C)Oc3c(C)c(O)c4c(O)c(c(/C=N/N5CCN(C)CC5)c(O)c4c3C2=O)NC(=O)/C(C)=C\C=C\[C@H](C)[C@H](O)[C@@H](C)[C@@H](O)[C@@H](C)[C@H](OC(C)=O)[C@@H]1C [RIFAMPIN]
Pseudomonas aeruginosa [1]
  MIC: 32 µg/mL (≈ 38.9 µM)
Staphylococcus aureus
  MIC: > 128 µg/mL
Escherichia coli [2]
  MIC: 8 µg/mL (≈ 9.72 µM)
Escherichia coli [3]
  MIC: 16 µg/mL (≈ 19.4 µM)
Escherichia coli [4]
  MIC: 16 µg/mL (≈ 19.4 µM)
[5]
  MIC: 32 µg/mL (≈ 38.9 µM)
Acinetobacter baumannii
  MIC: 8 µg/mL (≈ 9.72 µM)
Klebsiella pneumoniae
  MIC: 16 µg/mL (≈ 19.4 µM)
Pseudomonas aeruginosa [6]
  MIC: 32 µg/mL (≈ 38.9 µM)
Pseudomonas aeruginosa [31]
  fractional inhibitory concentration index (FICI): 1.5
Pseudomonas aeruginosa [27]
  MIC: 32 µg/mL (≈ 38.9 µM)
Pseudomonas aeruginosa [28]
  MIC: 16 µg/mL (≈ 19.4 µM)
Pseudomonas aeruginosa [29]
  MIC: 512 µg/mL (≈ 622 µM)
Pseudomonas aeruginosa [30]
  MIC: 16 µg/mL (≈ 19.4 µM)
